Experimental findings from US8063028B2, “Heterocyclic antiviral compounds” (Roche Palo Alto LLC, priority 2007, dated 2011) are described below.

The structures appear in SMILES notation. Counter-ions that a name gives are not always drawn.

The target of the first series is HIV-1 RT (Human immunodeficiency virus type 1 group M subtype B, UniProt P04585). The experiment in a line: HIV reverse transcriptase assay, inhibitor IC50 determination. Format: biochemical. The conditions noted are these: purified recombinant enzyme, poly(rA)/oligo(dT)16 template-primer, 37° C. 30 min. How it is done: Reactions were initiated by adding 4 nM HIV-1 RT and after incubation at 37° C. for 30 min, they were stopped by the addition of 50 μl ice cold 20% TCA and allowed to precipitate at 4° C. for 30 min. The precipitates were collected by applying vacuum to the plate and sequentially washing with 3×200 μl of 10% TCA and 2×200 μl 70% ethanol. Finally, the plates were dried and radioactivity counted in a Packard TopCounter after the addition of 25 μl scintillation fluid per well. IC50's were calculated by plotting % inhibition versus log10 inhibitor concentrations. Representative IC50 data is depicted in TABLE 2.
On to `N#Cc1cc(Cl)cc(Oc2c(Br)ccc(Cc3nn(COC(=O)CCC(=O)O)c4nnccc34)c2F)c1` [Compound I-3, Succinic acid mono-{3-[4-bromo-3-(3-chloro-5-cyano-phenoxy)-2-fluoro-benzyl]-pyrazolo[3,4-c]pyridazin-1-ylmethyl}ester], for which the IC50 (in general, the concentration needed to halve the response being measured) was 4.9 nM.
Take `N#Cc1cc(Cl)cc(Oc2c(Cl)ccc(Cc3nn(COC(=O)CCC(=O)O)c4nnccc34)c2F)c1` [Compound I-5, Succinic acid mono-{3-[4-chloro-3-(3-chloro-5-cyano-phenoxy)-2-fluoro-benzyl]-pyrazolo[3,4-c]pyridazin-1-ylmethyl}ester]: the IC50 is 7.4 nM.

Tested on in a further series: not given
Assay: not given
Conditions: not given
Turning to `CC(CN(C)C)OC(=O)n1nc(Cc2ccc(Br)c(Oc3cc(Cl)cc(C#N)c3)c2F)c2ccnnc21` (centres unmarked) (as salt: hydrochloride) [Compound I-13, 3-[4-Bromo-3-(3-chloro-5-cyano-phenoxy)-2-fluoro-benzyl]-pyrazolo[3,4-c]pyridazine-1-carboxylic acid 2-dimethylamino-1-methyl-ethyl ester], the melting point (usually the temperature, or range, at which the solid turns liquid) was 119 to 122 °C.
In turn, `N#Cc1cc(Cl)cc(Oc2c(Br)ccc(Cc3nn(COC(=O)CCC(=O)O)c4nnccc34)c2F)c1` (as salt: sodium) [Compound I-3, Succinic acid mono-{3-[4-bromo-3-(3-chloro-5-cyano-phenoxy)-2-fluoro-benzyl]-pyrazolo[3,4-c]pyridazin-1-ylmethyl}ester] came in with a melting point of 172.6 to 173.9 °C.
`N#Cc1cc(Cl)cc(Oc2c(Br)ccc(Cc3nn(COC(=O)CCC(=O)O)c4ncccc34)c2F)c1` [Compound I-1, Succinic acid mono-{3-[4-bromo-3-(3-chloro-5-cyano-phenoxy)-2-fluoro-benzyl]-pyrazolo[3,4-b]pyridin-1-ylmethyl}ester] gave a melting point of 183 to 184 °C.
On the same count and under the same terms, as for `N#Cc1cc(C#N)cc(Oc2c(Br)ccc(Cc3nn(COC(=O)CCC(=O)O)c4nnccc34)c2F)c1` [Compound I-4, Succinic acid mono-{3-[4-bromo-3-(3,5-dicyano-phenoxy)-2-fluoro-benzyl]-pyrazolo[3,4-c]pyridazin-1-ylmethyl}ester], the figure is 175.2 to 176.5 °C; as for `N#Cc1cc(Cl)cc(Oc2c(Cl)ccc(Cc3nn(COC(=O)CCC(=O)O)c4nnccc34)c2F)c1` [Compound I-5, Succinic acid mono-{3-[4-chloro-3-(3-chloro-5-cyano-phenoxy)-2-fluoro-benzyl]-pyrazolo[3,4-c]pyridazin-1-ylmethyl}ester], 173 to 174.8 °C; as for `COC(=O)n1nc(Cc2ccc(Br)c(Oc3cc(Cl)cc(C#N)c3)c2F)c2ccnnc21` [Compound I-6, 3-[4-Bromo-3-(3-chloro-5-cyano-phenoxy)-2-fluoro-benzyl]-pyrazolo[3,4-c]pyridazine-1-carboxylic acid methyl ester], 164 to 165 °C.
The same measure, in the same setting: with `N#Cc1cc(Cl)cc(Oc2c(Br)ccc(Cc3nn(COC(=O)CCCC(=O)O)c4nnccc34)c2F)c1` [Compound I-7, Pentanedioic acid mono-{3-[4-bromo-3-(3-chloro-5-cyano-phenoxy)-2-fluoro-benzyl]-pyrazolo[3,4-c]pyridazin-1-ylmethyl}ester] the figure was 149.8 to 150.7 °C.
The molecule `CC(=O)OCn1nc(Cc2ccc(Br)c(Oc3cc(Cl)cc(C#N)c3)c2F)c2ccnnc21` [Compound I-8, Acetic acid 3-[4-bromo-3-(3-chloro-5-cyano-phenoxy)-2-fluoro-benzyl]-pyrazolo[3,4-c]pyridazin-1-ylmethyl ester] gave a melting point of 71.1 to 73 °C.
`CC(C)[C@H](N)C(=O)OCn1nc(Cc2ccc(Br)c(Oc3cc(Cl)cc(C#N)c3)c2F)c2ccnnc21.Cl` [Compound I-9, (S)-2-Amino-3-methyl-butyric acid 3-[4-bromo-3-(3-chloro-5-cyano-phenoxy)-2-fluoro-benzyl]-pyrazolo[3,4-c]pyridazin-1-ylmethyl ester] returned a melting point of 155 to 156 °C.
`N#Cc1cc(Cl)cc(Oc2c(Br)ccc(Cc3nn(COC(=O)COCC(=O)O)c4nnccc34)c2F)c1` [Compound I-10, {3-[4-Bromo-3-(3-chloro-5-cyano-phenoxy)-2-fluoro-benzyl]-pyrazolo[3,4-c]pyridazin-1-ylmethoxycarbonylmethoxy}-acetic acid] came in with a melting point of 146 to 147 °C.
In turn, `CCOC(=O)n1nc(Cc2ccc(Br)c(Oc3cc(Cl)cc(C#N)c3)c2F)c2ccnnc21` [Compound I-11, 3-[4-Bromo-3-(3-chloro-5-cyano-phenoxy)-2-fluoro-benzyl]-pyrazolo[3,4-c]pyridazine-1-carboxylic acid ethyl ester] gave a melting point of 139 to 140 °C.
Same read-out and setting: as for `N#Cc1cc(C#N)cc(Oc2c(Cl)ccc(Cc3nn(COC(=O)CCC(=O)O)c4nnccc34)c2F)c1` [Compound I-12, Succinic acid mono-{3-[4-chloro-3-(3,5-dicyano-phenoxy)-2-fluoro-benzyl]-pyrazolo[3,4-c]pyridazin-1-ylmethyl}ester], the figure is 166.1 to 169.9 °C; as for `N#Cc1cc(Cl)cc(Oc2c(Cl)ccc(Cc3nn(COC(=O)CCCC(=O)O)c4nnccc34)c2F)c1` [Compound I-14, Pentanedioic acid mono-{3-[4-chloro-3-(3-chloro-5-cyano-phenoxy)-2-fluoro-benzyl]-pyrazolo[3,4-c]pyridazin-1-ylmethyl}ester], 176 to 178 °C; as for `N#Cc1cc(Cl)cc(Oc2c(Br)ccc(Cc3nn(COC(=O)CCCCC(=O)O)c4nnccc34)c2F)c1` [Compound I-15, Hexanedioic acid mono-{3-[4-bromo-3-(3-chloro-5-cyano-phenoxy)-2-fluoro-benzyl]-pyrazolo[3,4-c]pyridazin-1-ylmethyl}ester], 159 to 160 °C.
On to `CC(=O)n1nc(Cc2ccc(Br)c(Oc3cc(Cl)cc(C#N)c3)c2F)c2ccnnc21` [Compound I-16, 3-[3-(1-Acetyl-1H-pyrazolo[3,4-c]pyridazin-3-ylmethyl)-6-bromo-2-fluoro-phenoxy]-5-chloro-benzonitrile], for which the melting point was 195.5 to 196.9 °C.
Molecule `N#Cc1cc(Cl)cc(Oc2c(Br)ccc(Cc3nn(C(=O)c4cccnc4)c4nnccc34)c2F)c1` [Compound I-17, 3-{6-Bromo-2-fluoro-3-[1-(pyridine-3-carbonyl)-1H-pyrazolo[3,4-c]pyridazin-3-ylmethyl]-phenoxy}-5-chloro-benzonitrile] returned a melting point of 187.7 to 188.5 °C.
In turn, `CC(C)OC(=O)n1nc(Cc2ccc(Br)c(Oc3cc(Cl)cc(C#N)c3)c2F)c2ccnnc21` [Compound I-20, 3-[4-Bromo-3-(3-chloro-5-cyano-phenoxy)-2-fluoro-benzyl]-pyrazolo[3,4-c]pyridazine-1-carboxylic acid isopropyl ester] showed a melting point of 166.1 to 166.9 °C.
`CC(C)C(=O)n1nc(Cc2ccc(Br)c(Oc3cc(Cl)cc(C#N)c3)c2F)c2ccnnc21` [Compound I-21, 3-[6-Bromo-2-fluoro-3-(1-isobutyryl-1H-pyrazolo[3,4-c]pyridazin-3-ylmethyl)-phenoxy]-5-chloro-benzonitrile] registered a melting point of 157.7 to 159.3 °C.
